Drawing on PubChem BioAssay AID180 (DTP/NCI, 2004), this text covers T/C for 14 compounds.

This experiment has as its system BDF1 mice, Adenocarcinoma 755 s.c., tumor weight T/C. Kind of experiment: NCI In Vivo Anticancer Drug Screen. Data for tumor model Adenocarcinoma 755 (subcutaneous) in B6D2F1 (BDF1) mice. The note with it: endpoint: mean tumor weight, higher = larger tumour. In a few lines: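 Values express treated (T) relative to vehicle-dosed control (C) animals, based on survival or tumour size measured after compound treatment of mice bearing a transplanted tumour.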

Where [1] appears, read: dose: 250.0 mg/kg/injection, schedule: Q01DX011 (ip), vehicle: saline.
Where [2] appears, read: dose: 30.0 mg/kg/injection, schedule: Q01DX011 (ip), vehicle: carboxymethylcellulose (CMC).
[3] abbreviates: dose: 120.0 mg/kg/injection, schedule: Q01DX011 (ip), vehicle: carboxymethylcellulose (CMC).
[4] abbreviates: dose: 50.0 mg/kg/injection, schedule: Q01DX011 (sc), vehicle: steriod suspending solution.
[5] abbreviates: dose: 100.0 mg/kg/injection, schedule: Q01DX011 (sc), vehicle: steriod suspending solution.

Values joined by “and” are separate entries in the source; they are usually repeats but may differ in a detail not shown here. Equal values may be shown once.

Regarding `Nc1nc(N)c(N=O)c(Nc2ccc(Cl)c(Cl)c2)n1`, the T/C (usually the ratio of treated to control) is 90 % of control (dose: 1.75 mg/kg/injection, schedule: Q01DX011 (ip), vehicle: methylcellulose (MC)); 76 % of control (dose: 3.0 mg/kg/injection, schedule: Q01DX011 (ip), vehicle: carboxymethylcellulose (CMC)); 77 % of control (dose: 3.5 mg/kg/injection, schedule: Q01DX011 (ip), vehicle: methylcellulose (MC)); 61 % of control (dose: 4.0 mg/kg/injection, schedule: Q01DX011 (ip), vehicle: methylcellulose (MC)); 50 % of control (dose: 6.0 mg/kg/injection, schedule: Q01DX011 (ip), vehicle: methylcellulose (MC)); 57 % of control (dose: 7.0 mg/kg/injection, schedule: Q01DX011 (ip), vehicle: carboxymethylcellulose (CMC)). Moreover, the T/C (dose: 7.0 mg/kg/injection, schedule: Q01DX011 (ip), vehicle: methylcellulose (MC)) is 48 % of control; the T/C (dose: 14.0 mg/kg/injection, schedule: Q01DX011 (ip), vehicle: carboxymethylcellulose (CMC)) was 45 % of control and 50 % of control; the T/C (dose: 14.0 mg/kg/injection, schedule: Q01DX011 (ip), vehicle: methylcellulose (MC)) is 25 % of control and 44 % of control; the T/C (dose: 28.0 mg/kg/injection, schedule: Q01DX011 (ip), vehicle: methylcellulose (MC)) is 21 % of control; the T/C (dose: 57.0 mg/kg/injection, schedule: Q01DX011 (ip), vehicle: carboxymethylcellulose (CMC)) was 66 % of control; the T/C (dose: 57.0 mg/kg/injection, schedule: Q01DX011 (ip), vehicle: methylcellulose (MC)) is 18 % of control. Besides, the T/C (dose: 114.0 mg/kg/injection, schedule: Q01DX011 (ip), vehicle: carboxymethylcellulose (CMC)) was 63 % of control and the T/C (dose: 228.0 mg/kg/injection, schedule: Q01DX011 (ip), vehicle: carboxymethylcellulose (CMC)) was 8 % of control.

On to `[N-]=[N+]=CC(=O)NCC(=O)NN`, for which the T/C is, setting by setting: (dose: 62.5 mg/kg/injection, schedule: Q01DX011 (ip), vehicle: saline) 115 % of control; under setting [1], 39 % of control; (dose: 500.0 mg/kg/injection, schedule: Q01DX011 (ip), vehicle: saline) 43 % of control.

Consider `CC[C@]1(O)C[C@H]2CN(CCc3c([nH]c4ccccc34)[C@@](C(=O)OC)(c3cc4c(cc3OC)N(C)[C@H]3[C@@](O)(C(=O)OC)[C@H](OC(C)=O)[C@]5(CC)C=CCN6CC[C@]43[C@@H]65)C2)C1`, for which the T/C was 68 % of control and 76 % of control (dose: 0.05 mg/kg/injection, schedule: Q01DX011 (ip), vehicle: carboxymethylcellulose (CMC)); 94 % of control and 87 % of control (dose: 0.1 mg/kg/injection, schedule: Q01DX011 (ip), vehicle: carboxymethylcellulose (CMC)).

On to `CSc1nc(N)nc2c1n(C)c[n+]2C`, for which the T/C was 97 % of control under setting [2]; 99 % of control (dose: 60.0 mg/kg/injection, schedule: Q01DX011 (ip), vehicle: carboxymethylcellulose (CMC)); 66 % of control under setting [3]; 89 % of control (dose: 240.0 mg/kg/injection, schedule: Q01DX011 (ip), vehicle: carboxymethylcellulose (CMC)).

As to `[N-]=[N+]=C1N=CN=C1c1ncn[nH]1`, the T/C (dose: 25.0 mg/kg/injection, schedule: Q01DX011 (ip), vehicle: carboxymethylcellulose (CMC)) was 103 % of control.

Consider `N#CSc1ncnc2nc[nH]c12`, for which the T/C reads like this: (dose: 0.4 mg/kg/injection, schedule: Q01DX011 (ip), vehicle: water) 67 % of control; (dose: 1.0 mg/kg/injection, schedule: Q01DX011 (ip), vehicle: alkali diluted with saline) 20 % of control and 33 % of control; (dose: 1.0 mg/kg/injection, schedule: Q01DX011 (ip), vehicle: saline) 10 % of control; (dose: 1.3 mg/kg/injection, schedule: Q01DX011 (ip), vehicle: water) 8 % of control; (dose: 1.75 mg/kg/injection, schedule: Q01DX011 (ip), vehicle: water) 4 % of control; (dose: 2.0 mg/kg/injection, schedule: Q01DX011 (ip), vehicle: alkali diluted with saline) 1 % of control and 11 % of control. In addition, the T/C is 1 % of control (dose: 2.0 mg/kg/injection, schedule: Q01DX011 (ip), vehicle: saline); 2 % of control (dose: 4.0 mg/kg/injection, schedule: Q01DX011 (ip), vehicle: alkali diluted with saline); 1 % of control (dose: 4.0 mg/kg/injection, schedule: Q01DX011 (ip), vehicle: saline); 1 % of control (dose: 7.0 mg/kg/injection, schedule: Q01DX011 (ip), vehicle: water); 1 % of control (dose: 8.0 mg/kg/injection, schedule: Q01DX011 (ip), vehicle: saline).

With `COc1cc(/C=N/Nc2nc3c([nH]2)c(=O)n(C)c(=O)n3C)ccc1O`, the T/C is 91 % of control under setting [2] and 119 % of control under setting [3].

As to `C[C@H]1C[C@@H]2[C@H](C(=O)C[C@@]3(C)[C@H]2CC[C@]3(O)C(=O)CO)[C@@]2(C)C=CC(=O)C=C12`, the T/C reads like this: under setting [4], 30 % of control; under setting [5], 23 % of control.

For `C=CCc1c[nH]c(=O)[nH]c1=O`, the T/C was 99 % of control (dose: 67.5 mg/kg/injection, schedule: Q01DX011 (ip), vehicle: saline); 78 % of control (dose: 125.0 mg/kg/injection, schedule: Q01DX011 (ip), vehicle: saline); 72 % of control under setting [1].

With `CSc1ncc(Br)c(Nc2ccc(C)cc2)n1`, the T/C is, setting by setting: (dose: 15.0 mg/kg/injection, schedule: Q01DX011 (ip), vehicle: methylcellulose (MC)) 75 % of control; (dose: 31.0 mg/kg/injection, schedule: Q01DX011 (ip), vehicle: methylcellulose (MC)) 74 % of control; (dose: 62.0 mg/kg/injection, schedule: Q01DX011 (ip), vehicle: methylcellulose (MC)) 75 % of control; (dose: 125.0 mg/kg/injection, schedule: Q01DX011 (ip), vehicle: methylcellulose (MC)) 92 % of control; (dose: 250.0 mg/kg/injection, schedule: Q01DX011 (ip), vehicle: methylcellulose (MC)) 68 % of control.

Consider `CCCCn1cnc2c(=S)nc(N)[nH]c21`, for which the T/C is 57 % of control (dose: 0.6 mg/kg/injection, schedule: Q01DX011 (ip), vehicle: carboxymethylcellulose (CMC)); 35 % of control (dose: 1.2 mg/kg/injection, schedule: Q01DX011 (ip), vehicle: carboxymethylcellulose (CMC)); 60 % of control (dose: 1.2 mg/kg/injection, schedule: Q01DX011 (ip), vehicle: olive oil, sesame oil, peanut oil); 2 % of control (dose: 2.5 mg/kg/injection, schedule: Q01DX011 (ip), vehicle: carboxymethylcellulose (CMC)); 33 % of control (dose: 2.5 mg/kg/injection, schedule: Q01DX011 (ip), vehicle: olive oil, sesame oil, peanut oil).

Turning to `COC1=C(N)C(=O)c2nc(-c3nc(C(=O)O)c(C)c(-c4ccc(OC)c(OC)c4O)c3N)ccc2C1=O`, the T/C reads like this: (dose: 0.02 mg/kg/injection, schedule: Q01DX011 (ip), vehicle: water) 72 % of control; (dose: 0.04 mg/kg/injection, schedule: Q01DX011 (ip), vehicle: water) 47 % of control; (dose: 0.08 mg/kg/injection, schedule: Q01DX011 (ip), vehicle: water) 55 % of control; (dose: 0.16 mg/kg/injection, schedule: Q01DX011 (ip), vehicle: water) 4 % of control; (dose: 0.25 mg/kg/injection, schedule: Q01DX006 (ip), vehicle: water) 41 % of control; (dose: 0.5 mg/kg/injection, schedule: Q01DX006 (ip), vehicle: water) 10 % of control. The T/C is 36 % of control (dose: 50.0 micrograms/kg/injection, schedule: Q01DX011 (ip), vehicle: water) and 30 % of control (dose: 75.0 micrograms/kg/injection, schedule: Q01DX011 (ip), vehicle: water).

Regarding `CC(=O)[C@H]1CC[C@H]2[C@@H]3C[C@H](C)C4=CC(=O)CC[C@]4(C)[C@H]3[C@@H](O)C[C@]12C`, the T/C is, setting by setting: under setting [4], 56 % of control and 63 % of control; under setting [5], 59 % of control and 60 % of control; (dose: 200.0 mg/kg/injection, schedule: Q01DX011 (sc), vehicle: steriod suspending solution) 15 % of control and 34 % of control.

Consider `CN(CCO)/N=N/c1nc[nH]c1C(N)=O`, for which the T/C (dose: 42.0 mg/kg/injection, schedule: Q01DX011 (ip), vehicle: carboxymethylcellulose (CMC)) is 60 % of control; the T/C (dose: 93.0 mg/kg/injection, schedule: Q01DX011 (ip), vehicle: carboxymethylcellulose (CMC)) was 57 % of control; the T/C (dose: 187.0 mg/kg/injection, schedule: Q01DX011 (ip), vehicle: carboxymethylcellulose (CMC)) was 26 % of control.
